Reference: US7601331B2, “NIR-sensitive nanoparticle” (National University of Singapore, priority 2004, dated 2009)

Key:
[1] = Protocol: Anti-cancer drugs and other biomolecules can be loaded onto the NIR-sensitive nanoparticles by coating the particles with surfactants. […] The insolubility of MUA in water necessitated the chemisorption of MUA in absolute ethanol. NIR-sensitive nanoparticles (colloids) were separated from the aqueous reaction mixture by centrifugation, and dispersed in 100 mM MUA in absolute ethanol. The nanoparticles (colloids) were dispersed in these surfactant solutions for 3 days, an estimated time for chemisorption to reach equilibrium.
[2] = Thermogravimetric analysis (TGA) of freeze-dried surface-modified particles; assay type: physicochemical; settings: for Decomposition Temp.: TGA in helium, surfactant on NIR-sensitive nanoparticles; for Ave. Absorbed (amount of ligand adsorbed): TGA of freeze-dried particles
Protocol: Thermogravimetric analysis (TGA) was conducted in helium using a Perkin-Elmer series 7 Thermal Analysis system at a ramp rate of 4° C./min from 30° C. to 900° C.

Row | solubility in water [1] | Decomposition Temp. [2] [°C] | Ave. Absorbed (amount of ligand adsorbed) [2] [nmol/mg] | Structure (SMILES)
1 | insolubility | ~200 | 0.10 ± 0.03 | O=C(O)CCCCCCCCCCS [MUA, mercaptoundecanoic acid]
2 |  | ~150 | 0.14 ± 0.01 | O=C(O)CS [MAA, mercaptoacetic acid]
